According to patent publication US20130079345A1, “[…] ACTIVE DISUBSTITUTED TRIAZINE DERIVATIVES” (BAYER INTELLECTUAL PROPERTY GMBH, priority 2010, published 2013):
pKd: −log10 of the molar value.

What was measured:
CDK7/CyclinH/Mat1 = biological target: T1, CDK7/CyclinH/Mat1 (Homo sapiens, UniProt P50613); test: LanthaScreen Eu Kinase Binding Assay, CDK7; conditions: tracer 236, read-out: Affinity (Kd) CDK7
T1 construct: purchased Carna Biosciences
Method: (§1) This protocol describes how the LanthaScreen Eu Kinase Binding Assay was performed to determine dissociation constants (Kd) of compounds of general formula (I) and CDK/Cyclin complexes. The principle behind this assay is based upon the binding and displacement of an Alexa Fluor 647-labeled tracer, which binds to the active site of kinases. Binding of the tracer to the kinase is detected using a Eu-labeled antibody. Simultaneous binding of both the tracer and antibody to the kinase gives rise to a FRET-signal. Binding of an inhibitor to the kinase competes for binding with the tracer, resulting in a loss of FRET.
(§2) The compounds of general formula (I) summarized in Table 1 were diluted from a 10 mM DMSO stock solution 1:10 in a total volume of 15 μL DMSO. This compound predilution was then serial diluted 1:3 over 8 steps in DMSO and briefly spun down. Each compound solution was now diluted 1:33.33 in kinase buffer (HEPES: 20 mM, pH: 8.0; MgCl2: 10 mM; DTT: 1 mM; Brij-35: 0.01%), mixed thoroughly and spun down. For every sample, 5 μL of the diluted compound were mixed with 5 μL tracer working solution (e.g. 60 nM tracer 236 in kinase buffer for CDK2/Cyclin A) and 5 μL CDK/Cyclin/Anti-GST-AB-working solution (e.g. 15 nM CDK2/Cyclin A, 1:250 dilution of Anti-GST-AB in kinase buffer) in a well of a small volume 384 well plate (Corning Incorporated, Corning, N.Y., USA; order no. 3673). […] For positive controls, in each well 5 μL of DMSO working solution (3% DMSO diluted in kinase buffer) was mixed with 5 μL CDK/Cyclin/Anti-GST-AB-working solution: (e.g. 15 nM CDK2/Cyclin A, 1:250 dilution of Anti-GST-AB in kinase buffer) and 5 μL Tracer working solution (e.g. 60 nM Tracer 236 in kinase buffer for CDK2/Cyclin A). Positive and negative controls were calculated from at least 8 different sample wells. The 384 well plates were mixed in a Teleshaker plate mixer (Beckman Coulter, Brea, Calif., USA) at 2000 rpm for 40 sec, and incubated for 1 h at room temperature before reading. The FRET signal was measured at 340 nm excitation, 665 nm and 615 nm emission (for the kinase tracer and LanthaScreen Eu-AB, respectively) with an Envision spectrophotometer (Perkin Elmer, Waltham, Mass., USA) with 50 μs delay and 300 μs integration time. Kd values were determined from the sigmoidal dose response curves with the software Quattro Workflow (Quattro GmbH, Munich, Germany).

CDK9/Cyclin T1 = biological target: T2, CDK9/Cyclin T1 (Homo sapiens, UniProt P50750); test: LanthaScreen Eu Kinase Binding Assay, CDK9/Cyclin T1; conditions: tracer 236, read-out: Affinity (Kd) CDK9/Cyclin T1
T2 construct: purchased Invitrogen
Method: as §1, §2

CDK9/Cyclin K = biological target: T3, CDK9/Cyclin K (Homo sapiens, UniProt P50750); test: LanthaScreen Eu Kinase Binding Assay, CDK9/Cyclin K; conditions: tracer 236, read-out: Affinity (Kd) CDK9/Cyclin K
T3 construct: purchased Invitrogen
Method: as §1, §2

CDK2/CyclinA = biological target: T4, CDK2/CyclinA (Homo sapiens, UniProt P24941); test: LanthaScreen Eu Kinase Binding Assay, CDK2; conditions: tracer 236, read-out: Affinity (Kd) CDK2
T4 construct: purchased Proqinase
Method: as §1, §2

T1 sequence (P50613 whole entry): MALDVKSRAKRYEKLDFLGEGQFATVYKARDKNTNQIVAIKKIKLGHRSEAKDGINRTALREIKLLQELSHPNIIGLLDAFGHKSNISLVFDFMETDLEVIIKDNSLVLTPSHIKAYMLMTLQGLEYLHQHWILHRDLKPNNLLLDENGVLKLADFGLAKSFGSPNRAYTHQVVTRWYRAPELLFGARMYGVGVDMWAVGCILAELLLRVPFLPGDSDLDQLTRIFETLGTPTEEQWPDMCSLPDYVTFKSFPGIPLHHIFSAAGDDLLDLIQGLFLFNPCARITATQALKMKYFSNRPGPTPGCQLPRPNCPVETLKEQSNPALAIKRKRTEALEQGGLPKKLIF
T1 sequence (P51946 whole entry partner): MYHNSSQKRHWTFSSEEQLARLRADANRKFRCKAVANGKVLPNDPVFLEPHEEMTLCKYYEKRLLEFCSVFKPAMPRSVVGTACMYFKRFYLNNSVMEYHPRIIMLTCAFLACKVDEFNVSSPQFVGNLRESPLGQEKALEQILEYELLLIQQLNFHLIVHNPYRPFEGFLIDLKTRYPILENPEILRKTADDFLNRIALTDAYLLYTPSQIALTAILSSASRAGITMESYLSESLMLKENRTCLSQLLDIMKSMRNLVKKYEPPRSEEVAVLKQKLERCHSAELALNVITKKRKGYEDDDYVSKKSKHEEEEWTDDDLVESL
T1 sequence (P51948 whole entry partner): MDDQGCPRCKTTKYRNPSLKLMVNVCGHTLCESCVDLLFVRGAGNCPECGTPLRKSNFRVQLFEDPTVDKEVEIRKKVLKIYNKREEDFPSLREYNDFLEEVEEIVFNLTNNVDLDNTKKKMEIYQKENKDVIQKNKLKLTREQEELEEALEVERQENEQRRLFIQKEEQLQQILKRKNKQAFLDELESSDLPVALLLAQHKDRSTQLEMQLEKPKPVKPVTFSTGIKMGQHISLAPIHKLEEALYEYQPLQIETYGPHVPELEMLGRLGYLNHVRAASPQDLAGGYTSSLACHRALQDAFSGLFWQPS
T2 sequence (P50750 whole entry): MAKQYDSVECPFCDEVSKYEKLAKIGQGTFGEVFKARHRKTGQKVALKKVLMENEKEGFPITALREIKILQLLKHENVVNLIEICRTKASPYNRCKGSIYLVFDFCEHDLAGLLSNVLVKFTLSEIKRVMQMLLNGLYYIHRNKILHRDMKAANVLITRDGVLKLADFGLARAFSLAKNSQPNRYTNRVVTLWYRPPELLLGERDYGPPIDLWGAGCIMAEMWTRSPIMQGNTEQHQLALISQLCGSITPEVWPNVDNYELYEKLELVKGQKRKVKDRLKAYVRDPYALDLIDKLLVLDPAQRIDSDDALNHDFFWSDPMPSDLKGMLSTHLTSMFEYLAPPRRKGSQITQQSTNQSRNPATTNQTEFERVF
T2 sequence (O60563 whole entry partner): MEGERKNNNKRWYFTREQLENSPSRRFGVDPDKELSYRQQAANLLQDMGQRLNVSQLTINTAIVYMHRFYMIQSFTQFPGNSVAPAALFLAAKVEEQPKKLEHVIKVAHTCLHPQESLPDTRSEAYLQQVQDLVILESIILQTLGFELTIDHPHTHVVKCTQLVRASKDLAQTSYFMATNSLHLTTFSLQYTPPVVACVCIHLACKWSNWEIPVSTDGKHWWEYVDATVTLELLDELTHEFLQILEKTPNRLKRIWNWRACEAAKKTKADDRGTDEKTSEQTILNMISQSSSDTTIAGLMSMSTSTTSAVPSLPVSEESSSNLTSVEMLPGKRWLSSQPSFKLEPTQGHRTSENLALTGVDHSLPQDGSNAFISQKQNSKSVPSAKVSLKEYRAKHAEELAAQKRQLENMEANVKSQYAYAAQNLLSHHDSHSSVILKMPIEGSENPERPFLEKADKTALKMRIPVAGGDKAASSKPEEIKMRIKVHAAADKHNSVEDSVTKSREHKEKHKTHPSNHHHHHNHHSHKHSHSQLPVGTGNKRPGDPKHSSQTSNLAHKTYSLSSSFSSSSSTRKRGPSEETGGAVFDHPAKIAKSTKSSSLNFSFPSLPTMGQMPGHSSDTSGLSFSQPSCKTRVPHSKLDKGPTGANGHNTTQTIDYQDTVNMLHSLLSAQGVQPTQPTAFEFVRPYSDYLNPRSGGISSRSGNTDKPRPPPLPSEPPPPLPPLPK
T3 sequence (P50750 whole entry): as the sequence (P50750 whole entry) above
T3 sequence (O75909 whole entry partner): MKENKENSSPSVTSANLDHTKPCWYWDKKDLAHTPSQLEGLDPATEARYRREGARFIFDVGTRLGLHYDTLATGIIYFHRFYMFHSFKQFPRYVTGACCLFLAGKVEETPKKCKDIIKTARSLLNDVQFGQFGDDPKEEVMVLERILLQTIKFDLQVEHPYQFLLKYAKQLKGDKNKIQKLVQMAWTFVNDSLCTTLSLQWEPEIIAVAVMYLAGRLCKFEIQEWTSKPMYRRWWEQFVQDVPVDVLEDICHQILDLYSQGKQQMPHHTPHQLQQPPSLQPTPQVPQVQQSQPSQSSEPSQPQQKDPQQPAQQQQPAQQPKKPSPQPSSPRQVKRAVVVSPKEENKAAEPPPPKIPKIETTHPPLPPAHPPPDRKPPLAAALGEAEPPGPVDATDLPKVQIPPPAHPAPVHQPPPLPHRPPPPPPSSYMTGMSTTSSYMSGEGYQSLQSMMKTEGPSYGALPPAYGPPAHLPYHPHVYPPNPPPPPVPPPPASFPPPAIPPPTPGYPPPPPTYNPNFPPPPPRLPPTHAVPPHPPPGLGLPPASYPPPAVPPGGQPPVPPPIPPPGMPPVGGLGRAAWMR

Row | Structure (SMILES) | pKd (CDK7/CyclinH/Mat1) | pKd (CDK9/Cyclin T1) | pKd (CDK9/Cyclin K) | pKd (CDK2/CyclinA)
1 | COc1ccc(C(F)(F)F)cc1-c1ncnc(Nc2cccc(CS(N)(=O)=O)c2)n1 [Compound B9, 3-[(4-(2-Methoxy-5-trifluoromethyl-phenyl)-1,3,5-triazin-2-yl)amino]benzenemethanesulfonamide] | < 5.00 | 6.40 | 5.80 | 
2 | COc1ccc(CO)cc1-c1ncnc(Nc2cccc(CS(N)(=O)=O)c2)n1 [Compound B10, 3-[(4-(5-Hydroxymethyl-2-methoxyphenyl)-1,3,5-triazin-2-yl)amino]benzenemethanesulfonamide] | < 5.00 | 6.51 | 6.96 | 
3 | CC(C)(C)OC(=O)NCCCCOc1ccccc1-c1ncnc(Nc2cccc(CS(N)(=O)=O)c2)n1 [Compound B17, 3-[(4-(2-(4-(tert-Butoxycarbonylamino)butoxy)phenyl)-1,3,5-triazin-2-yl)amino]benzenemethanesulfonamide] | 4.89 | 7.82 | 8.19 | 5.55
4 | COCc1ccccc1-c1ncnc(Nc2cccc(CS(N)(=O)=O)c2)n1 [Compound B24, 3-[(4-(2-(Methoxymethyl)phenyl)-1,3,5-triazin-2-yl)amino]benzenemethanesulfonamide] | < 5.00 | 6.04 | 5.96 | 
5 | NCCCCOc1ccccc1-c1ncnc(Nc2cccc(CS(N)(=O)=O)c2)n1 [Compound I1, 3-[(4-(2-(4-Aminobutoxy)phenyl)-1,3,5-triazin-2-yl)amino]benzenemethanesulfonamide] | < 4.52 | 7.00 | 7.28 | 
6 | COc1ccccc1-c1ncnc(Nc2cccc(NC(C)=O)c2)n1 [Compound M1, N-[3-((4-(2-Methoxyphenyl)-1,3,5-triazin-2-yl)amino)phenyl]acetamide] | < 4.52 | 6.84 | 7.15 | 5.84
7 | CNCc1ccc(OC)c(-c2ncnc(Nc3cccc(CS(N)(=O)=O)c3)n2)c1 [Compound O1, 3-[(4-(2-Methoxy-5-(methylamino-methyl)phenyl)-1,3,5-triazin-2-yl)amino]benzenemethanesulfonamide] | < 4.52 | 5.27 | 5.22 | 
8 | COc1cc(F)ccc1-c1ncnc(Nc2cccc(CS(=O)(=O)NCCCCNC(=O)OC(C)(C)C)c2)n1 [Compound Q1, tert-Butyl [4-((3-((4-(4-Fluoro-2-methoxyphenyl)-1,3,5-triazin-2-yl)amino)phenyl)methylsulfonamido)butyl]carbamate] | < 5.00 | 7.89 | 8.30 | 5.68

More lines, in order of rising pKd (CDK9/Cyclin T1), values ahead:

Row | pKd (CDK7/CyclinH/Mat1) | pKd (CDK9/Cyclin T1) | pKd (CDK9/Cyclin K) | pKd (CDK2/CyclinA) | Structure (SMILES)
9 | < 5.00 | 5.91 | 6.15 |  | COc1cc(C(F)(F)F)ccc1-c1ncnc(Nc2cccc(CS(N)(=O)=O)c2)n1 [Compound B8, 3-[(4-(2-Methoxy-4-trifluoromethyl-phenyl)-1,3,5-triazin-2-yl)amino]benzenemethanesulfonamide]
10 | < 5.00 | 6.08 | 6.54 |  | COc1c(F)cc(F)cc1-c1ncnc(Nc2cccc(CS(N)(=O)=O)c2)n1 [Compound B5, 3-[(4-(3,5-Difluoro-2-methoxyphenyl)-1,3,5-triazin-2-yl)amino]benzenemethanesulfonamide]
11 |  | 6.37 | 6.43 |  | NS(=O)(=O)Cc1cccc(Nc2ncnc(-c3ccccc3CNC3CC3)n2)c1 [Compound B22, 3-[(4-(2-(Cyclopropylamino-methyl)phenyl)-1,3,5-triazin-2-yl)amino]benzenemethanesulfonamide]
12 | 4.87 | 6.88 | 7.40 | 5.96 | COc1ccccc1-c1ncnc(Nc2ccc3c(c2)N(S(N)(=O)=O)CC3)n1 [Compound F1, 6-[(4-(2-Methoxyphenyl)-1,3,5-triazin-2-yl)amino]-2,3-dihydro-1H-indole-1-sulfonamide]
13 | < 5.00 | 6.98 | 7.06 | < 5.00 | CCOC(=O)N=S(C)(=O)c1cccc(Nc2ncnc(-c3ccccc3OC)n2)c1 (racemic) [Compound G1, rac-S-[3-((4-(2-Methoxyphenyl)-1,3,5-triazin-2-yl)amino)phenyl]-N-ethoxycarbonyl-S-methyl-sulfoximide]
